“Also recorded” adds a separate entry of the source.
Assays:
[1] = system: TMZ sensitive (U251) cells; test: Colony forming assay, TMZ sensitive U251 cells; format: cell-based, human; conditions: in words
Method: Colony forming assays were carried out after cells were treated with TMZ alone, POH alone, and the TMZ-POH conjugate. […] Cancer Lett. 2011 Mar. 28; 302(2):100-8.

[2] = system: MDA-MB-231-br; test: Colony formation assay, MDA-MB-231-br; format: cell-based, human; conditions: for IC50: Homo sapiens, 48 h, read-out: IC50 (concentration required to decrease colony formation by 50%)
Method: (§1) Depending on the cell line (and plating efficiency), 200-350 cells were seeded into each well of a 6-well plate. […] Thereafter, the drugs were removed, fresh growth medium was added, and the cells were kept in culture undisturbed for 12-16 days, during which time the surviving cells spawned colonies of descendants. Colonies (defined as groups of >50 cells) were visualized by staining for 4 hours with 1% methylene blue (in methanol), and then were counted.
(§2) The cytotoxic potency of TMZ-POH, was analyzed by colony formation assay (CFA) in a variety of human breast cancer cell lines and compared to the cytotoxicity of TMZ. We used estrogen receptor positive cells MCF7 and T47D, the triple-negative lines MDA-MB-231, MDA-MB-468, and HCC-1937, and a brain-seeking variant of the 231 cell line, MDA-MB-231-br.

[3] = system: MCF7; test: Colony formation assay, MCF7; conditions: for IC50: Homo sapiens, MCF7, 48 h, read-out: IC50 (concentration required to decrease colony formation by 50%)
Method: as §1
(§3) In the case of O6-BG treatment, cells were pretreated with 10 μM O6-BG for one hour before addition of TMZ or TMZ-POH. After 24 hours, another 10 μM O6-BG was added to the medium. Another 24 hours later, drug-laced medium was removed, and fresh medium without drugs was added. Thereafter, cells remained undisturbed until staining with methylene blue.
as §2

[4] = system: 231-MGMT-1; test: Colony formation assay, MGMT-transfected 231-MGMT-1; format: cell-based, human; conditions: for IC50: Homo sapiens, 48 h, read-out: IC50 (concentration required to decrease colony formation by 50%)
Method: as §1, §3
MDA-MB-231 cells were co-transfected in 6-well plates with the use of Lipofectamine 2000 (Invitrogen, Carlsbad, Calif.) according to manufacturer's instructions. 2 μg pSV2MGMT (containing the human MGMT cDNA) was combined with 0.2 μg pSV2neo (containing the neomycin gene for selection of cells in G418). Both plasmids were provided by Bernd Kaina (Mainz, Germany). Individual clones of transfected cells were selected in medium containing 750 μg/mL G418 and propagated in 250 μg/mL G418. G418 was obtained as G418 disulfate salt from Sigma-Aldrich and dissolved in PBS at 75 mg/mL. Selection medium was removed from cells several days before experimental drug treatment.
To investigate the latter, we stably transfected MGMT-negative MDA-MB-231 cells with MGMT cDNA and isolated individual clones. […] Both clones were treated with increasing concentrations of TMZ-POH and TMZ and analyzed by CFA.

[5] = system: MDA-MB-231 cells; test: Determination of drug stability by colony formation assay; format: cell-based, human; conditions: for colony survival: drugs in the medium for 24 hours; for reduction of colony formation: one-hour exposure; for survival: two-hour exposure; for reduction of survival: added straight to cells, 24 hours; for colony-forming ability of receiving cells: supernatant transferred after prior one-hour incubation
Method: FIGS. 26A-26C depicts determination of drug stability, where MDA-MB-231 cells were analyzed in colony formation assays. In FIG. 26A, cells were treated with 15 μM TMZ-POH or 30 μM TMZ for 30 min or 1, 2, 4, and 24 hours. Thereafter, drug-containing medium was removed, fresh medium (without drug) was added, and cells remained undisturbed until colony staining 12 days later. The arrows indicate which cells received which supernatant. After 24 hours of incubation, all drug-containing medium was removed, fresh medium (without drug) was added, and cells remained undisturbed until colony staining 12 days later. […] Left panel (untreated): control cells without drug treatment. Middle panel (0-24 h): Cells received 15 μM TMZ-POH or 30 μM TMZ for 24 hours. Right panel (1-25 h): TMZ-POH and TMZ were incubated in neutral buffer at 37° C. for 1 hour before addition to cells to a final concentration of 15 μM TMZ-POH and 30 μM TMZ for 24 hours.
TMZ is a prodrug, and it is well known that its activation takes place spontaneously in aqueous solution at 37° C. (i.e., no cellular functions are required for this conversion). As well, the half-lives of both prodrug and active product are fairly short, where all cytotoxic triggers are set within the first few hours of treatment. […] First, we exposed cells to variably short periods of drug treatment, washed off the drug, and then continued to keep cells in medium without drug to determine survival and colony-forming ability. For most of these experiments, we used 15 μM TMZ-POH and 30 μM TMZ, because these concentrations are approximately equipotent in the >90% cytotoxicity range (when measured by CFAs and a drug exposure time of 24 hours).
Thus, TMZ acted more quickly than TMZ-POH; it required only 4 hours to exert maximum toxicity, whereas TMZ-POH had not yet reached its maximum impact at this time point.
We next modified this experiment as follows. After cells had been exposed to drug treatment for the specific times shown in FIG. 26A, we removed the medium containing the drug from the cells, and transferred this supernatant to fresh cells, which were then exposed for 24 hours. […] In contrast, when supernatant was transferred after prior one-hour incubation, colony-forming ability of receiving cells was 48% in cells receiving TMZ-containing supernatant, and 22% in TMZ-POH-containing supernatant.
To exclude the involvement of cellular enzymes in the turnover of TMZ-POH, we incubated TMZ-POH (and TMZ) in phosphate-buffered saline at 37° C. for one hour (in the absence of cells). After this pre-incubation, TMZ-POH and TMZ were added to cells for 24 hours, and survival was determined by CFA. As a control, both drugs were also added to cells without prior incubation in aqueous solution. A representative CFA is shown in FIG. 26C, where the middle panel confirms that both drugs were used at approximately equipotent concentrations; i.e., when added straight to cells, they reduced survival by ˜95%. However, pre-incubation in aqueous solution for only one hour preempted the cytotoxic potency of TMZ by about 50%, but that of TMZ-POH much less (80% remaining; see right panel).

[6] = low micromolar concentrations, 48 hours, in words

Row | SMILES | cytotoxicity (colony forming assay) [1] | IC50 [2] [µM] | IC50 [3] [µM] | IC50 [4] [µM] | colony survival ([5]; 15 μM TMZ-POH or 30 μM TMZ) | reduction of colony formation ([5]; 15 μM TMZ-POH or 30 μM TMZ) [%] | survival ([5]; 15 μM TMZ-POH or 30 μM TMZ) [%] | reduction of survival ([5]; 15 μM TMZ-POH or 30 μM TMZ) [%] | colony-forming ability of receiving cells [5] [%] | Differential (−fold) ([2]; fold increase in potency of TMZ-POH compared to TMZ, MDA-MB-231-br) | colony formation (CFA) [2, 6] | Differential (−fold) ([3]; fold increase in potency of TMZ-POH compared to TMZ, MCF7) | colony formation (CFA) [3, 6] | Differential (−fold) ([4]; fold increase in potency of TMZ-POH compared to TMZ, 231-MGMT-1) | time required to exert maximum toxicity ([5]; 15 μM TMZ-POH or 30 μM TMZ) [h] | stability / retention of cytotoxic potency ([5]; in words) | cytotoxic potency remaining after pre-incubation ([5]; phosphate-buffered saline at 37° C. for one hour, absence of cells) [%] | cytotoxic activity of supernatant transferred after prior 24-hours of incubation ([5]; receiving cells exposed 24 hours, in words)
1 | Cn1nnc2c(C(N)=O)ncn2c1=O [TMZ, temozolomide, reference compound] | demonstrated cytotoxicity | 3.8 | 513 | 202 | ~8% | > 50 | 23 | ~95 | 48 | – | – | – | – | – | – | – | – | –
2 | C=C(C)[C@@H]1CC=C(COC(=O)NC(=O)c2ncn3c(=O)n(C)nnc23)CC1 [TMZ-POH] | demonstrated cytotoxicity; also recorded: substantially greater potency compared to POH alone | 1.2 | 33 | 27 | about 3% | 20 | 51 | ~95 | 22 | 3.2 −fold | prevented colony formation | 15.5 −fold | prevented colony formation | 7.5 −fold | > 4 | retained its cytotoxic potency substantially longer than TMZ; also recorded: more stable than TMZ | 80 | no cytotoxic activity remained

— patent publication US9913838B2, “Methods of treating cancer using compositions comprising perillyl alcohol derivative” (NEONC TECHNOLOGIES INC., priority 2010, dated 2018)
